Source: article PMC9266914, “Broad Spectrum Functional Activity of Structurally Related Monoanionic Au(III) Bis(Dithiolene) Complexes” (International Journal of Molecular Sciences, 2022)
Read-outs that look alike come from different tables or passages of the source. Marks after values point to notes of the source that are not given here.

Key:
E. coli ATCC25922 [1] = experiment: MIC determination, E. coli; type: cell-based, Escherichia coli; conditions: MH broth, 22 h, 37 °C
Source text: (§1) The bacterial strains Escherichia coli ATCC25922 and Staphylococcus aureus Newman were used in this work and maintained in Lennox Broth (LB) solid medium, composed of 10 g/L tryptone, 5 g/L yeast extract, 5 g/L NaCl and 20 g/L agar. The fungal strains Candida albicans SC5134 and C. glabrata CBS138 were used in this work and maintained in YPD solid medium, composed of 20 g/L glucose, 20 g/L peptone, 10 g/L yeast extract and 15 g/L agar. The strains were isolated from human infections.
(§2) The antimicrobial activity of the complexes towards the bacterial and fungal strains was assessed by the determination of the Minimal Inhibitory Concentration (MIC) of each complex towards the indicated microbial strains, based on standard methods, and as previously described. […] Serial 1:2 dilutions of stock solutions were prepared for each complex in Mueller–Hinton (MH) broth (Fluka Analytical) or RPMI-1640 medium (Sigma) supplemented with 20 g/L glucose and buffered with 0.165 M morpholinepropanesulphonic acid (RPMIG) to pH 7.0. Solutions prepared with MH were used for testing bacteria, while those prepared with RPMIG were used for testing fungi. For antibacterial activity assays, the final concentrations ranged from 250 to 0.24 μg/mL (when stock solution final concentration was 10 mg/mL), 125 μg/mL to 0.12 μg/mL (when stock solution final concentration was 5 mg/mL) and 62.5 to 0.06 μg/mL (when stock solution final concentration was 2.5 mg/mL). For antifungal assays, the final concentrations ranged from 125 μg/mL to 0.12 μg/mL (when stock solution final concentration was 10 mg/mL), 62.5 to 0.06 μg/mL (when stock solution final concentration was 5 mg/mL) and 31.25 to 0.03 μg/mL (when stock solution final concentration was 2.5 mg/mL). Then, 100 μL aliquots of adequately diluted bacterial suspensions of S. aureus Newman or E. coli ATCC 25922 were mixed with the MH serially diluted complexes aliquots to obtain 5 × 10^5 CFU/mL. In the case of fungi, cultures were diluted to obtain a final optical density of 0.025, measured at 530 nm (OD530). Bacterial suspensions were prepared from cultures grown for 5 h in MH broth at 37 °C and 250 rev·min^−1 and adequately diluted with fresh MH medium, while fungal suspensions were prepared from overnight cultures grown in YPD broth at 30 °C and 250 rev.min^−1 and diluted in buffered RPMIG. After 22 h of incubation at 37 °C (bacteria) or 24 h at 35 °C (fungi), the wells’ content was resuspended by pipetting and the OD640 (bacteria) or OD530 (fungi) were measured in a SPECTROstar Nano microplate reader (BMG Labtech).
(§3) At least three independent experiments were performed in duplicate for each complex under study. […] Positive (no complex) and negative controls (no inoculum) were performed for each experiment. The effect of 5% (V/V) DMSO on microbial growth was also assessed.

[2] = system: zebrafish (Danio rerio) embryos; experiment: Acute toxicity (mortality) in zebrafish embryo; type: in vivo; conditions: 72 hpf embryos, 0.1–10 μM, 48 h, in words
Source text: Toxicity is a major challenge for drug development and is the leading cause of drug failure. Consequently, the evaluation of the potential toxicity represents a critical step in the development of new drugs. In this context, the zebrafish embryo represents a notable in vivo vertebrate model for studying the toxic effects of chemical compounds due to the small size, robustness, multiple progenies from a single mating, chemical permeability, easiness of observation and maintenance under laboratory conditions. In addition, the close phylogeny of zebrafish and mammals, with highly conserved signaling pathways, makes this species increasingly used and ideal for performing toxicological studies. Therefore, we evaluated the complexes acute toxicity by measuring mortality of 72 h post-fertilization (hpf) zebrafish embryos when incubated with increasing concentrations of the Au(III) complexes for 48 h.
To test the toxicological effect of the gold (III) complexes, zebrafish (Danio rerio) embryos at developmental stage of 72 h post-fertilization (hpf) were exposed to different concentrations of the target complexes and mortality was assessed for 48 h of treatment. […]

S. aureus Newman [3] = experiment: MIC determination, S. aureus; type: cell-based, Staphylococcus aureus; conditions: MH broth, 22 h, 37 °C
Source text: as §1, §2, §3

[4] = system: OVCAR8 ovarian cancer cells; experiment: MTT cytotoxicity assay in OVCAR8 (cisplatin resistant) ovarian cancer cells; type: cell-based, human; conditions: 48 h incubation
Method: (§4) Cells were exposed to increasing concentrations of the complexes (0.01–100 μM) for 24 and/or 48 h, at 37 °C. The IC50 values were calculated from dose–response curves using the colorimetric MTT assay. […] Most complexes presented a similar cytotoxicity profile compared to Auranofin, but higher activity compared to Cisplatin, and, most importantly, were active in the Cisplatin-resistant OVCAR8 cells (Table 2).
(§5) The cytotoxic activity of the complexes was evaluated in the A2780 (cisplatin sensitive) (Sigma-Aldrich) and OVCAR8 (cisplatin resistant) (ATCC) ovarian cancer cells. Cells were grown in RPMI-1640 medium (Gibco, Thermo Fisher) supplemented with 10% fetal bovine serum (FBS) and were maintained at 37 °C in a humidified atmosphere with 5% CO2. The complexes were initially dissolved in DMSO and then in culture medium to prepare serial dilutions in the range 10^−9–10^−4 M. After 24 and/or 48 h incubation the cellular viability was measured by the colorimetric MTT assay, as previously described.

Huh7 cells = experiment: Cell viability (cell confluency, Alamar Blue) of P. berghei-infected Huh7 cells; type: cell-based; conditions: 5 µM, in words
Method: (§6) The in vitro liver stage activity of gold complexes was assessed against P. berghei-infected Huh7 cells, as previously described. Briefly, Huh7 cells were cultured in RPMI-1640 medium supplemented with 10% (v/v) fetal bovine serum, 1% (v/v) penicillin/streptomycin, 1% (v/v) glutamine, 1% (v/v) non-essential amino acids and 10 mM HEPES. On the day prior to infection, Huh7 cells were seeded in 96-well plates at a density of approximately 3.1 × 10^4 cell/cm^2 and incubated at 37 °C, 5% CO2. Stock solutions of the complexes were initially prepared in DMSO and serially diluted in infection medium, i.e., culture medium supplemented with gentamicin (50 µg/mL) and fungizone (0.8 µg/mL), to obtain the test concentrations. As a control, DMSO was diluted in infection medium to a percentage that equals that of the highest compound concentrations tested. These dilutions were added to the cells in triplicates and incubated for 1 h at 37 °C, 5% CO2, after which 1 × 10^4 luciferase-expressing P. berghei sporozoites were added to each well. Plates were centrifuged at 1800× g for 5 min at room temperature and incubated for the duration of the assay. At 46 h post-infection (hpi), the impact of each compound concentration on cell viability was assessed by the Alamar Blue (Invitrogen, Buckinghamshire, UK) assay, according to the manufacturer’s recommendations. Infection was next assessed by bioluminescence, employing the Firefly Luciferase Assay Kit 2.0 (Biotium, Fremont, CA, USA), according to the manufacturer’s recommendations. For IC50 determination, nonlinear regression analysis was employed to fit the normalized results of the dose–response curves, using GraphPad Prism 8 (GraphPad software, La Jolla, CA, USA).

C. glabrata CBS138 [5] = experiment: MIC determination, C. glabrata; type: cell-based, Candida glabrata; conditions: RPMIG, 24 h, 35 °C
Source text: as §1, §2, §3

[6] = system: A2780 ovarian cancer cells; experiment: MTT cytotoxicity assay in A2780 (cisplatin sensitive) ovarian cancer cells; type: cell-based, human
Method: as §4, §5

C. albicans SC5134 [7] = experiment: MIC determination, C. albicans; type: cell-based, Candida albicans; conditions: RPMIG, 24 h, 35 °C
Source text: as §1, §2, §3

P. berghei hepatic stage = experiment: In vitro activity against the hepatic stage of P. berghei infection (luciferase, Huh7 cells); type: cell-based, Plasmodium berghei; conditions: for IC50: hepatic stage, Huh7 cells, 46 hpi
Method: as §6

S. aureus Newman [8] = system: S. aureus Newman; design: method as in PMID 32391537; conditions: complexes starred as Complex 1 / Complex 2; cited from earlier work
C. glabrata CBS138 [9] = system: C. glabrata CBS138; design: method as in PMID 32391537; conditions: complexes starred as Complex 1 / Complex 2; cited from earlier work
E. coli ATCC25922 [10] = system: E. coli ATCC25922; design: method as in PMID 32391537; conditions: complexes starred as Complex 1 / Complex 2; cited from earlier work
C. albicans SC5134 [11] = system: C. albicans SC5134; design: method as in PMID 32391537; conditions: complexes starred as Complex 1 / Complex 2; cited from earlier work
[12] = system: A2780 ovarian cancer cells; design: method as in PMID 32391537; conditions: MTT, starred values, cited from earlier work
[13] = 24 h incubation, read-out: IC50 A2780, 24 h
[14] = 48 h incubation, read-out: IC50 A2780, 48 h

Row | SMILES | MIC E. coli ATCC25922 (E. coli ATCC25922 [1]) [µg/mL] | toxicity in zebrafish embryo [2] | MIC S. aureus Newman (S. aureus Newman [3]) [µg/mL] | IC50 [4] [nM] | toxicity seen as lower cell confluency (Huh7 cells) | MIC C. glabrata CBS138 (C. glabrata CBS138 [5]) [µg/mL] | IC50 [6, 13] [nM] | IC50 [6, 14] [nM] | MIC C. albicans SC5134 (C. albicans SC5134 [7]) | IC50 (P. berghei hepatic stage) [nM] | MIC S. aureus Newman (S. aureus Newman [8]) [µg/mL] | MIC C. glabrata CBS138 (C. glabrata CBS138 [9]) [µg/mL] | MIC E. coli ATCC25922 (E. coli ATCC25922 [10]) [µg/mL] | MIC C. albicans SC5134 (C. albicans SC5134 [11]) [µg/mL] | IC50 [12, 13] [nM] | IC50 [12, 14] [nM] | activity against hepatic stage of P. berghei (positive control) (P. berghei hepatic stage; in words) | MIC C. albicans SC5134 (C. albicans SC5134 [7]; listed as [ N ][AuSPr(=S)]) [µg/mL]
1 | CCN1C(=C(C#N)C#N)SC2=C1[S][Au-]1([S]2)[S]C2=C([S]1)N(CC)C(=C(C#N)C#N)S2.CC[N+](CC)(CC)CC [[N][AuSEt(=C(CN)2)]] | >125 | more toxic than [N][AuSEt(=S)] | >125 | 1480 ± 410 | some degree of toxicity | >62.5 | 1320 ± 200 | 170 | >62.5 µg/mL | – | – | – | – | – | – | – | – | –
2 | CC[N+](CC)(CC)CC.Cn1c2c(sc1=S)[S][Au-]1([S]c3sc(=S)n(C)c3[S]1)[S]2 [[N][AuSMe(=S)]] | >250 | – | 4.4 ± 0.2 | 2440 ± 780 | some degree of toxicity | 2.9 ± 0.9 | 1630 ± 400 | 110 | >62.5 *** µg/mL | 429 ± 39.6 | – | – | – | – | – | – | – | –
3 | CCn1c2c(sc1=O)[S][Au-]1([S]c3sc(=O)n(CC)c3[S]1)[S]2.c1ccc([P+](c2ccccc2)(c2ccccc2)c2ccccc2)cc1 [[P][AuSEt(=O)]] | >125 | more toxic than [P][AuSEt(=S)] | >125 | 1160 ± 210 | some degree of toxicity | >62.5 | 860 ± 110 | 310 ± 100 | >62.5 µg/mL | – | – | – | – | – | – | – | – | –
4 | CCCn1c2c(sc1=S)[S][Au-]1([S]c3sc(=S)n(CCC)c3[S]1)[S]2.c1ccc([P+](c2ccccc2)(c2ccccc2)c2ccccc2)cc1 [[P][AuSPr(=S)]] | – | – | – | – | – | – | – | – | – | – | >125 | >125 | >125 | >125 | 4600 ± 1150 | 520 ± 230 | – | –
5 | CCn1c2c(sc1=[Se])[Se][Au-]1([Se]c3sc(=[Se])n(CC)c3[Se]1)[Se]2.c1ccc([P+](c2ccccc2)(c2ccccc2)c2ccccc2)cc1 [[P][AuSeEt(=Se)]] | >125 | – | >125 | 2420 ± 1520 | – | >62.5 | 3960 ± 2210 | 640 ± 190 | >62.5 µg/mL | 518 ± 246 | – | – | – | – | – | – | – | –
6 | CCCn1c2c(sc1=S)[Se][Au-]1([Se]c3sc(=S)n(CCC)c3[Se]1)[Se]2.c1ccc([P+](c2ccccc2)(c2ccccc2)c2ccccc2)cc1 [[P][AuSePr(=S)]] | >250 | – | >250 | 1570 ± 430 | – | >125 | 910 ± 400 | 290 ± 100 | >125 µg/mL | 544 ± 19.4 | – | – | – | – | – | – | – | –
7 | O=C1C(O)=C([C@H]2CC[C@H](c3ccc(Cl)cc3)CC2)C(=O)c2ccccc21 [Atovaquone, reference compound] | – | – | – | – | – | – | – | – | – | – | – | – | – | – | – | – | nanomolar-ranged activity | –
8 | CCCn1c2c(sc1=S)[S][Au-]1([S]c3sc(=S)n(CCC)c3[S]1)[S]2.CC[N+](CC)(CC)CC [[N][AuSPr(=S)]] | >250 | – | 1.1 ± 0.2 | 2280 ± 190 | – | 1.6 ± 0.8 | 2930 ± 810 | 2280 ± 690 | 3.1 µg/mL | – | – | – | – | – | – | – | – | 3.1 ± 0.5
9 | CCCn1c2c(sc1=[Se])[S][Au-]1([S]c3sc(=[Se])n(CCC)c3[S]1)[S]2.c1ccc([P+](c2ccccc2)(c2ccccc2)c2ccccc2)cc1 [[P][AuSPr(=Se)]] | >125 | – | >125 | 800 ± 180 | some degree of toxicity | >62.5 | 620 ± 190 | 550 ± 410 | 62.5 µg/mL | 643.9 ± 1.34 | – | – | – | – | – | – | – | –
